Results from the supplement of paper PMC10307832.

Columns and labels:
Test in all cases: relative viability (nuclei count vs DMSO), 5 days (fraction); higher = more cells survive
Irinotecan + Alpelisib = compound: CCc1c2c(nc3ccc(OC(=O)N4CCC(N5CCCCC5)CC4)cc13)-c1cc3c(c(=O)n1C2)COC(=O)[C@]3(O)CC [Irinotecan] + Cc1nc(NC(=O)N2CCC[C@H]2C(N)=O)sc1-c1ccnc(C(C)(C)C(F)(F)F)c1 [Alpelisib] (partner 2 µM)
Summary of the method: (§1)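 A single step with final 0.05% Triton X-100, 1% formaldehyde and 1 ug/ml Hoechst fixed the cells and stained nuclei 5 days after treatment. Lung cancer cell lines in 1536-well plates had been treated by pin tool the day after seeding with one drug alone or a fixed anchor-drug dose plus five library-drug doses (not always all listed) in √10 steps, and nuclei were counted on 4× images. Relative viability is the ratio of nuclei in treated wells to nuclei in vehicle wells, taken as the median of duplicate plates.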

RU-SKI 43 + AZD7762 = compound: CC[C@@H](C)CNCC(=O)N1CCC2=C([C@@H]1COC3=CC=CC(=C3)C)C=CS2 [RU-SKI 43] + NC(=O)Nc1cc(-c2cccc(F)c2)sc1C(=O)N[C@H]1CCCNC1 [AZD7762] (partner 0.2 µM)
Summary of the method: as §1

Irinotecan + Bortezomib = compound: CCc1c2c(nc3ccc(OC(=O)N4CCC(N5CCCCC5)CC4)cc13)-c1cc3c(c(=O)n1C2)COC(=O)[C@]3(O)CC [Irinotecan] + CC(C)C[C@H](NC(=O)[C@H](Cc1ccccc1)NC(=O)c1cnccn1)B(O)O [Bortezomib] (partner 0.002 µM)
Summary of the method: as §1

RU-SKI 43 + Vorinostat = compound: CC[C@@H](C)CNCC(=O)N1CCC2=C([C@@H]1COC3=CC=CC(=C3)C)C=CS2 [RU-SKI 43] + O=C(CCCCCCC(=O)Nc1ccccc1)NO [Vorinostat] (partner 1 µM)
Summary of the method: as §1

Cell Line | relative viability (Irinotecan + Alpelisib; first compound 2 µM) | relative viability (Irinotecan + Alpelisib; first compound 6.325 µM) | relative viability (Irinotecan + Alpelisib; first compound 20 µM) | relative viability (RU-SKI 43 + AZD7762; first compound 0.1 µM) | relative viability (RU-SKI 43 + AZD7762; first compound 0.3162 µM) | relative viability (RU-SKI 43 + AZD7762; first compound 1 µM) | relative viability (RU-SKI 43 + AZD7762; first compound 3.162 µM) | relative viability (RU-SKI 43 + AZD7762; first compound 10 µM) | relative viability (Irinotecan + Bortezomib; first compound 2 µM) | relative viability (Irinotecan + Bortezomib; first compound 6.325 µM) | relative viability (Irinotecan + Bortezomib; first compound 20 µM) | relative viability (RU-SKI 43 + Vorinostat; first compound 0.1 µM) | relative viability (RU-SKI 43 + Vorinostat; first compound 0.3162 µM) | relative viability (RU-SKI 43 + Vorinostat; first compound 1 µM) | relative viability (RU-SKI 43 + Vorinostat; first compound 3.162 µM) | relative viability (RU-SKI 43 + Vorinostat; first compound 10 µM) | relative viability (Irinotecan + Alpelisib; first compound 0.6325 µM) | relative viability (Irinotecan + Bortezomib; first compound 0.6325 µM)
201T | 0.87 | 0.465 | 0.331 | 0.628 | 0.603 | 0.602 | 0.531 | 0.567 | 1.12 | 1.06 | 0.942 | 0.968 | 1.17 | 1.09 | 1.06 | 0.957 | – | –
A549 | 0.642 | 0.207 | 0.0613 | – | – | – | – | – | – | – | – | – | – | – | – | – | 0.776 | –
A-427 | 0.19 | 0.176 | 0.185 | 0.726 | 0.761 | 0.765 | 0.851 | 0.674 | 0.427 | 0.198 | 0.187 | 0.868 | 0.823 | 0.933 | 0.873 | 0.786 | – | –
ABC-1 | 0.654 | 0.439 | 0.362 | 0.894 | 0.867 | 1.2 | 0.727 | 0.957 | 0.276 | 0.324 | 0.103 | 0.964 | 1.08 | 1.27 | 1.01 | 1.16 | – | –
BEN | 0.771 | 0.319 | 0.372 | 0.801 | 0.652 | 0.786 | 0.642 | 0.743 | 0.561 | 0.218 | 0.296 | 0.621 | 0.531 | 0.665 | 0.639 | 0.546 | 1.11 | 0.547
CAL-12T | 1.19 | 0.422 | 0.309 | 0.644 | 0.735 | 0.698 | 0.714 | 0.648 | 0.978 | 0.491 | 0.324 | 0.77 | 0.89 | 0.909 | 0.699 | 0.692 | 1.08 | 0.944
COR-L23 | 0.238 | 0.158 | 0.119 | – | – | – | – | – | 0.396 | 0.211 | 0.113 | 0.427 | 0.376 | 0.532 | 0.499 | 0.387 | 0.324 | 0.506
COR-L 105 | 1.18 | 0.648 | 0.444 | – | – | – | – | – | 0.798 | 0.627 | 0.291 | 0.8 | 0.913 | 0.796 | 0.886 | 0.895 | 1.08 | 0.676
Calu-6 | 0.543 | 0.291 | 0.119 | – | – | – | – | – | 0.551 | 0.296 | 0.114 | – | – | – | – | – | 0.826 | 0.816
ChaGo-K-1 | – | – | – | 0.877 | 1.04 | 0.836 | 0.921 | 0.801 | 1.05 | 0.46 | 0.379 | 0.759 | 0.731 | 0.853 | 0.77 | 0.762 | – | –
EBC-1 | 0.387 | 0.385 | 0.161 | – | – | – | – | – | 0.437 | 0.474 | 0.143 | – | – | – | – | – | 0.621 | 0.421
EKVX | 0.766 | 0.33 | 0.205 | 0.605 | 0.714 | 0.874 | 0.707 | 0.658 | 0.772 | 0.394 | 0.193 | 0.658 | 0.614 | 0.707 | 0.643 | 0.632 | 1.03 | 1.08
EMC-BAC-2 | 0.28 | 0.165 | 0.181 | 1.1 | 1.1 | 1.27 | 1.13 | 1.09 | 0.717 | 0.242 | 0.218 | 0.526 | 0.362 | 0.79 | 0.375 | 0.521 | 0.483 | 0.952
EPLC-272H | 0.203 | 0.183 | 0.267 | 0.242 | 0.194 | 0.195 | 0.345 | 0.26 | 0.635 | 0.317 | 0.217 | 0.467 | 0.384 | 0.426 | 0.401 | 0.31 | 0.44 | 0.744
H3255 | 0.409 | 0.321 | 0.272 | 0.843 | 1.02 | 1.03 | 0.839 | 0.873 | 0.529 | 0.299 | 0.392 | 0.838 | 0.763 | 1.1 | 0.851 | 0.769 | 0.665 | 0.432
HARA | 0.211 | 0.215 | 0.177 | 0.469 | 0.243 | 0.301 | 0.357 | 0.279 | 0.291 | 0.177 | 0.156 | 0.568 | 0.52 | 0.485 | 0.517 | 0.548 | 0.557 | 0.955
HCC-15 | 0.239 | 0.144 | 0.173 | 1.12 | 1.17 | 1.15 | 1.24 | 1.19 | 0.623 | 0.374 | 0.176 | 0.808 | 0.932 | 0.881 | 0.839 | 0.869 | 0.478 | 0.603
HCC-44 | 0.347 | 0.28 | 0.313 | 0.995 | 1.04 | 1.08 | 1.06 | 1.01 | 0.752 | 0.229 | 0.351 | 1.14 | 1.12 | 1.12 | 1.15 | 1.05 | 0.669 | 0.74
HCC-78 | 0.248 | 0.195 | 0.211 | 0.716 | 0.638 | 0.85 | 0.6 | 0.695 | 0.393 | 0.242 | 0.257 | 0.531 | 0.378 | 0.469 | 0.475 | 0.439 | 0.38 | 0.404
HCC-366 | 0.187 | 0.0425 | 0.0448 | 0.268 | 0.252 | 0.321 | 0.34 | 0.216 | 0.361 | 0.0441 | 0.0691 | 0.276 | 0.493 | 0.439 | 0.438 | 0.328 | 0.404 | 0.731
